The results in this text go back to US12083185B2, “Small polymeric carriers for delivery of agents” (University of Pittsburgh—Of the Commonwealth System of …, priority 2018, dated 2024).

One data set has as its system PANC02 cells. Briefly: MTT cytotoxicity assay in PANC02 cells. In kind it is cell-based, murine. To be noted: 96 h. How it is done:
MTT assay. The combinational effect of PTX and GEM as well as the cytotoxicity of blank and drug-loaded micelles were investigated by MTT assay using murine pancreatic carcinoma cell lines PANC02 and H7 cells. Cells were seeded into a 96-well plate at a density of 5000 cells/well and incubated in 100 μL of Dulbecco's Modified Eagle medium (DMEM) containing 10% FBS for 24 h. Cells were treated with various concentrations of free PTX, GEM or micelles solution for 96 h. Then, 20 μL of MTT solution (5 mg/mL) were added to each well and the cells were incubated for another 4 h. After removing the medium, 100 μL of DMSO were added into each well to dissolve MTT formazan crystals. The optical density was measured using a microplate reader and the cell viability was calculated with untreated cells as a control.
A general note: Tetrazolium assays rely on reduction of a dye to a coloured formazan, in cell work by metabolically active cells.

For the next data set, the system named is CDA. Kind of data set: CDA expression in PANC02 cells by western blot. In kind it is cell-based, murine. Conditions: vs control group. The source says: As described above, CDA is overexpressed in pancreatic cancer, which mediates the metabolism of cytidine analogue drugs, such as gemcitabine of GEM, leading to the resistance to treatment with these drugs. Thus, reducing the CDA expression provides a new therapeutic window for pancreatic cancer. We examined the CDA expression in PANC02 cells treated with various formulations by western blot.
For orientation: A western blot detects proteins with antibodies after separation by electrophoresis.

`Nc1ccn([C@@H]2O[C@H](CO)[C@@H](O)C2(F)F)c(=O)n1` [free GEM, gemcitabine]: in the data set with PANC02 cells, the “Cytotoxicity (cell killing effect, in words)” value is “concentration-dependent cell killing effect”. Also, the CDA expression entry with CDA is “not altered”.
